From PMC12298351, “Novel 3,19-(N-Phenyl-3-(4-fluorophenyl)-pyrazole) Acetal of Andrographolide Promotes Cell Cycle Arrest and Apoptosis in MDA-MB-231 Breast Cancer Cells” (Pharmaceuticals, 2025)

Tests used:
SNB-19 = assay type: cell-based; settings: SNB-19, CNS
BT-549 = assay type: cell-based; settings: BT-549, Breast
K-562 = settings: K-562, Leukemia
COLO 205 = settings: COLO 205, Colon
KM12 = settings: KM12, Colon
DU-145 = settings: DU-145, Prostate
SNB-75 = settings: SNB-75, CNS
MDA-MB-468 = settings: MDA-MB-468, Breast
UO-31 = settings: UO-31, Renal
HT29 = settings: HT29, Colon
CAKI-1 = settings: CAKI-1, Renal
SK-OV-3 = settings: SK-OV-3, Ovarian
MCF7 = settings: MCF7, Breast
786-0 = settings: 786-0, Renal
SK-MEL-5 = settings: SK-MEL-5, Melanoma
MALME-3M = settings: Melanoma
SK-MEL-28 = settings: SK-MEL-28, Melanoma
IGROV1 = settings: IGROV1, Ovarian
OVCAR-5 = settings: OVCAR-5, Ovarian
SF-268 = settings: SF-268, CNS
SW-620 = settings: SW-620, Colon
[1] = read-out: 50% lethal concentration (LC50)
[2] = read-out: 50% lethal concentration (LC50), Renal

C=C1CCC2C3(C)COC(c4cn(-c5ccccc5)nc4-c4cccc(Br)c4)OC3CCC2(C)C1CC=C1C(=O)OCC1O (centres unmarked) [1e]
Total growth inhibition (TGI) (NCI-H460; NCI-H460, Non-Small Cell Lung): 3.49 µM
GI50 (NCI-H460; NCI-H460, Non-Small-Cell Lung): 1.78 µM
CC50 (NCI-H460; read-out: 50% lethal concentration (LC50), NCI-H460, Non-Small Cell Lung): 6.83 µM
GI50 (SNB-19): 2.17 µM
Total growth inhibition (TGI) (SNB-19): 5.24 µM
CC50 (SNB-19; [1]): 17.2 µM
GI50 (LOX IMVI; Melanoma): 1.64 µM
Total growth inhibition (TGI) (LOX IMVI; Melanoma): 3.03 µM
CC50 (LOX IMVI; read-out: 50% lethal concentration (LC50), Melanoma): 5.59 µM
GI50 (BT-549): 1.46 µM
Total growth inhibition (TGI) (BT-549): 2.99 µM
GI50 (K-562): 2.89 µM
Total growth inhibition (TGI) (K-562): > 100 µM
CC50 (K-562; [1]): > 100 µM
GI50 (COLO 205): 2.09 µM
Total growth inhibition (TGI) (COLO 205): 4.36 µM
GI50 (KM12): 1.83 µM
Total growth inhibition (TGI) (KM12): 3.58 µM
GI50 (SN12C; Renal): 1.57 µM
Total growth inhibition (TGI) (SN12C; Renal): 2.55 µM
CC50 (SN12C; [2]): 8.12 µM
GI50 (DU-145): 2.12 µM
Total growth inhibition (TGI) (DU-145): 4.57 µM
CC50 (DU-145; [1]): 9.82 µM
GI50 (HS 578T; Breast): 1.94 µM
Total growth inhibition (TGI) (HS 578T; Breast): 5.19 µM
CC50 (HS 578T; read-out: 50% lethal concentration (LC50), Breast): > 100 µM
GI50 (MDA-MB-231; MDA-MB-231, Breast): 1.68 µM
Total growth inhibition (TGI) (MDA-MB-231; MDA-MB-231/ATCC, Breast): 3.23 µM
CC50 (MDA-MB-231; read-out: 50% lethal concentration (LC50), MDA-MB-231/ATCC, Breast): 6.23 µM
GI50 (SNB-75): 1.57 µM
Total growth inhibition (TGI) (SNB-75): 5.32 µM
CC50 (SNB-75; [1]): 22.9 µM
GI50 (MDA-MB-468): 1.82 µM
Total growth inhibition (TGI) (MDA-MB-468): 3.41 µM
CC50 (MDA-MB-468; [1]): 6.37 µM
GI50 (UO-31): 1.45 µM
Total growth inhibition (TGI) (UO-31): 5.34 µM
CC50 (UO-31; [1]): 6.83 µM
GI50 (HT29): 1.66 µM
Total growth inhibition (TGI) (HT29): 3.46 µM
CC50 (HT29; [1]): 7.23 µM
GI50 (CAKI-1): 1.42 µM
Total growth inhibition (TGI) (CAKI-1): 2.98 µM
CC50 (CAKI-1; [1]): 6.04 µM
GI50 (SK-OV-3): 4.16 µM
Total growth inhibition (TGI) (SK-OV-3): 48.3 µM
CC50 (SK-OV-3; [1]): > 100 µM
GI50 (MCF7): 1.77 µM
Total growth inhibition (TGI) (MCF7): > 100 µM
CC50 (MCF7; [1]): > 100 µM
GI50 (ACHN; Renal): 1.61 µM
Total growth inhibition (TGI) (ACHN; Renal): 16.8 µM
CC50 (ACHN; [2]): 5.51 µM
GI50 (786-0): 2.59 µM
CC50 (786-0; [1]): > 100 µM
Total growth inhibition (TGI) (A549/ATCC; Non-Small Cell Lung): 19.9 µM
GI50 (A549/ATCC; Non-Small-Cell Lung): 3.07 µM
CC50 (A549/ATCC; read-out: 50% lethal concentration (LC50), Non-Small Cell Lung): > 100 µM
Total growth inhibition (TGI) (NCI-H226; NCI-H226, Non-Small Cell Lung): 3.43 µM
GI50 (NCI-H226; NCI-H226, Non-Small-Cell Lung): 1.75 µM
CC50 (NCI-H226; read-out: 50% lethal concentration (LC50), NCI-H226, Non-Small Cell Lung): 6.71 µM
GI50 (SK-MEL-5): 1.54 µM
Total growth inhibition (TGI) (SK-MEL-5): 2.88 µM
CC50 (SK-MEL-5; [1]): 5.39 µM
GI50 (MALME-3M): 1.87 µM
Total growth inhibition (TGI) (MALME-3M): 3.45 µM
GI50 (SK-MEL-28): 1.73 µM
Total growth inhibition (TGI) (SK-MEL-28): 3.28 µM
CC50 (SK-MEL-28; [1]): 6.2 µM
GI50 (IGROV1): 2.2 µM
Total growth inhibition (TGI) (IGROV1): 4.83 µM
CC50 (IGROV1; [1]): > 100 µM
Total growth inhibition (TGI) (HOP-92; HOP-92, Non-Small Cell Lung): 3.41 µM
GI50 (HOP-92; HOP-92, Non-Small-Cell Lung): 1.75 µM
GI50 (OVCAR-5): 1.85 µM
Total growth inhibition (TGI) (OVCAR-5): 4.35 µM
CC50 (OVCAR-5; [1]): 47.7 µM
GI50 (SF-268): 2.02 µM
Total growth inhibition (TGI) (SF-268): 4.26 µM
CC50 (SF-268; [1]): 8.98 µM
GI50 (SW-620): 1.72 µM
Total growth inhibition (TGI) (SW-620): 3.64 µM
GI50 (NCI/ADR-RES; Ovarian): 2.15 µM
Total growth inhibition (TGI) (NCI/ADR-RES; Ovarian): 5.37 µM
CC50 (NCI/ADR-RES; read-out: 50% lethal concentration (LC50), Ovarian): > 100 µM
